Measured values published in US20190047966A1, “NOVEL COMPOUND AND PHARMACOLOGICALLY ACCEPTABLE SALT THEREOF” (MEIJI SEIKA PHARMA CO., LTD., priority 2016, published 2019).
Where a name gives a salt, the structure may show the parent alone.

Tests used:
[1] = target: T1, human histamine H4 receptor (Homo sapiens, UniProt Q9H3N8); assay: Evaluation of Human H4 Receptor Affinity ([3H]histamine binding); settings: inhibition constant Ki, CHO-K1 membrane preparation, read-out: Evaluation of H4 Receptor Affinity
T1 construct: purchased PerkinElmer Inc; host or cells: CHO-K1
Protocol: Test Example 2: Evaluation of Human H4 Receptor Affinity
Membrane preparation from recombinant CHO-K1 cell expressing the human histamine H4 receptor (PerkinElmer Inc.), radiolabeled ligand 8.2 nM [^3H]histamine (PerkinElmer Inc.), and compounds dissolved in DMSO were reacted at 25° C. for 90 minutes in a buffering solution containing 50 mM tris-hydrochloric acid, pH 7.4, and 1.25 mM EDTA on a 96 well plate, followed by filtration using a GF/B filter (PerkinElmer Inc.) pretreated with 0.3% polyethylenimine. The residue was washed four times with a buffering solution of 50 mM tris-hydrochloric acid, pH 7.4. Thereafter, a scintillation cocktail (MicroScint 20: PerkinElmer Inc.) was added to the GF/B filter, and the radioactivity of each well was measured using a liquid scintillation counter for 96-well (TopCount: PerkinElmer Inc.). The non-specific binding was evaluated in the presence of 1.0 μM histamine. The inhibition constant Ki was calculated from the 50% inhibitory concentration (IC50 value) obtained in each test and the Kd value (5.7 nM) unique to this assay system, according to the Cheng-Prusoff equation.

[2] = target: human histamine H1 receptor (Homo sapiens, UniProt P35367); assay: Evaluation of Human H1 Receptor Affinity ([3H]pyrilamine binding); set-up: purchased PerkinElmer Inc; host or cells: CHO-K1; settings: inhibition constant Ki, CHO-K1 membrane preparation
Sequence of human histamine H1 receptor (P35367 whole entry): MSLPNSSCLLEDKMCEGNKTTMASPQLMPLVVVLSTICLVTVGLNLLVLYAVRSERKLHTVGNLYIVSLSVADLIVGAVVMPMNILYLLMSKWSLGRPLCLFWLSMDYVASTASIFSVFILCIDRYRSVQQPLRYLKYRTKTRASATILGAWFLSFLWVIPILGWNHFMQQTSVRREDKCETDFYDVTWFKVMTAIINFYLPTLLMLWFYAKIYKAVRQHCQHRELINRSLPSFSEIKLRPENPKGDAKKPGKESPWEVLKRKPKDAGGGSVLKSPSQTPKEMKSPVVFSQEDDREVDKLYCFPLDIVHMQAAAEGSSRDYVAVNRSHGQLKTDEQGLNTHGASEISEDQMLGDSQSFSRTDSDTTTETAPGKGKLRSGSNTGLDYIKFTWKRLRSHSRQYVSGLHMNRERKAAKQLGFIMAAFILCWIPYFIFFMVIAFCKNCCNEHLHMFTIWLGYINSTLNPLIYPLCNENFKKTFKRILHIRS
Protocol: Test Example 1: Evaluation of Human H1 Receptor Affinity
Membrane preparation from recombinant CHO-K1 cell expressing the human histamine H1 receptor (PerkinElmer Inc.), radiolabeled ligand 1.2 nM [^3H]pyrilamine (PerkinElmer Inc.), and test compounds dissolved in DMSO were reacted at 25° C. for 3 hours in a buffering solution containing 50 mM tris-hydrochloric acid, pH 7.4, and 5 mM magnesium chloride on a 96 well plate, followed by filtration using a GF/B filter (PerkinElmer Inc.) pretreated with 0.3% polyethylenimine. The residue was washed four times with a buffering solution of 50 mM tris-hydrochloric acid, pH 7.4. Thereafter, a scintillation cocktail (MicroScint 20: PerkinElmer Inc.) was added to the GF/B filter, and the radioactivity of each well was measured using a liquid scintillation counter for 96-well (TopCount: PerkinElmer Inc.). The non-specific binding was evaluated in the presence of 1.0 μM pyrilamine. The inhibition constant Ki was calculated from the 50% inhibitory concentration (IC50 value) obtained in each test and the Kd value (1.1 nM) unique to this assay system, according to the Cheng-Prusoff equation.

Row | SMILES | Ki [1] [nM] | Ki [2] [nM]
1 | Nc1nc2c(c(N3CCN(CCOC4CC5C(C4)C5C(=O)O)CC3)n1)CCc1cc(OCc3ccc(OC(F)(F)F)cc3)ccc1-2 (mixture of isomers) [Example 35, 3-(2-(4-(2-amino-8-((4-(trifluoromethoxy)benzyl)oxy)-5,6-dihydrobenzo[h]quinazolin-4-yl)piperazin-1-yl)ethoxy)bicyclo[3.1.0]hexane-6-carboxylic acid] | < 100 | < 100
2 | Nc1nc2c(c(N3CCN(CCOC[C@@H]4CC[C@H](C(=O)O)O4)CC3)n1)CCc1cc(OCc3ccc(Cl)cc3)ccc1-2 (relative stereo) [Example 171, cis-5-((2-(4-(2-amino-8-((4-chlorobenzyl)oxy)-5,6-dihydrobenzo[h]quinazolin-4-yl)piperazin-1-yl)ethoxy)methyl)tetrahydrofuran-2-carboxylic acid] | 100 to 500 | < 100
3 | Nc1nc2c(c(N3CCN(CCOC[C@@H]4CCC[C@H](C(=O)O)C4)CC3)n1)CCc1cc(OCc3ccc(OC(F)(F)F)cc3)ccc1-2 (relative stereo) [Example 186, cis-3-((2-(4-(2-amino-8-((4-(trifluoromethoxy)benzyl)oxy)-5,6-dihydrobenzo[h]quinazolin-4-yl)piperazin-1-yl)ethoxy)methyl)cyclohexane-1-carboxylic acid dihydrochloride] | < 100 | < 100
4 | CC(Oc1ccc2c(c1)CCc1c-2nc(N)nc1N1CCN(CCO[C@H]2C[C@@H](C(=O)O)C2)CC1)c1ccc(OC(F)(F)F)cc1 (relative stereo) [Example 209, cis-3-(2-(4-(2-amino-8-(1-(4-(trifluoromethoxy)phenyl)ethoxy)-5,6-dihydrobenzo[h]quinazolin-4-yl)piperazin-1-yl)ethoxy)cyclobutane-1-carboxylic acid] | < 100 | < 100
5 | COC(=O)COCCOCCN1CCN(c2nc(N)nc3c2CCc2cc(OCc4ccc(Cl)cc4)ccc2-3)CC1 [11(a), methyl 2-(2-(2-(4-(2-amino-8-((4-chlorobenzyl)oxy)-5,6-dihydrobenzo[h]quinazolin-4-yl)piperazin-1-yl)ethoxy)ethoxy)acetate] | < 100 | < 100
6 | COC(=O)c1cccc(COCCN2CCN(c3nc(N)nc4c3CCc3cc(OCc5ccc(OC(F)(F)F)cc5)ccc3-4)CC2)c1 [16(a), methyl 3-((2-(4-(2-amino-8-((4-(trifluoromethoxy)benzyl)oxy)-5,6-dihydrobenzo[h]quinazolin-4-yl)piperazin-1-yl)ethoxy)methyl)benzoate] | 100 to 500 | < 100
7 | COC(=O)c1cc(COCCN2CCN(c3nc(N)nc4c3CCc3cc(OCc5ccc(Cl)cc5)ccc3-4)CC2)ccc1F [17(a), methyl 5-((2-(4-(2-amino-8-((4-chlorobenzyl)oxy)-5,6-dihydrobenzo[h]quinazolin-4-yl)piperazin-1-yl)ethoxy)methyl)-2-fluorobenzoate] | < 100 | < 100
8 | COC(=O)c1cccc(COCCN2CCN(c3nc(N)nc4c3CCc3cc(OCc5ccc(Cl)cc5)ccc3-4)CC2)n1 [18(a), methyl 6-((2-(4-(2-amino-8-((4-chlorobenzyl)oxy)-5,6-dihydrobenzo[h]quinazolin-4-yl)piperazin-1-yl)ethoxy)methyl)picolinate] | < 100 | < 100
9 | COC(=O)c1ccc(OCCN2CCN(c3nc(N)nc4c3CCc3cc(OCc5ccc(Cl)cc5)ccc3-4)CC2)cc1 [19(a), methyl 4-(2-(4-(2-amino-8-((4-chlorobenzyl)oxy)-5,6-dihydrobenzo[h]quinazolin-4-yl)piperazin-1-yl)ethoxy)benzoate] | 100 to 500 | 100 to 500
10 | COC(=O)c1ccc(COCCN2CCN(c3nc(N)nc4c3CCc3cc(OCc5ccc(OC(F)(F)F)cc5)ccc3-4)CC2)o1 [20(a), methyl 5-((2-(4-(2-amino-8-((4-(trifluoromethoxy)benzyl)oxy)-5,6-dihydrobenzo[h]quinazolin-4-yl)piperazin-1-yl)ethoxy)methyl)furan-2-carboxylate] | 100 to 500 | < 100
11 | CCOC(=O)[C@]1(C)C[C@@H](OCCN2CCN(c3nc(N)nc4c3CCc3cc(OCc5ccc(Cl)cc5)ccc3-4)CC2)C1 [25(a), ethyl trans-3-(2-(4-(2-amino-8-((4-chlorobenzyl)oxy)-5,6-dihydrobenzo[h]quinazolin-4-yl)piperazin-1-yl)ethoxy)-1-methylcyclobutane-1-carboxylate] | 100 to 500 | < 100
12 | CCOC(=O)[C@]1(C)C[C@H](OCCN2CCN(c3nc(N)nc4c3CCc3cc(OCc5ccc(Cl)cc5)ccc3-4)CC2)C1 [26(a), ethyl cis-3-(2-(4-(2-amino-8-((4-chlorobenzyl)oxy)-5,6-dihydrobenzo[h]quinazolin-4-yl)piperazin-1-yl)ethoxy)-1-methylcyclobutane-1-carboxylate] | 100 to 500 | < 100
13 | Nc1nc2c(c(N3CCN(CCOCC4CNC4)CC3)n1)CCc1cc(OCc3ccc(OC(F)(F)F)cc3)ccc1-2 [38(b), 4-(4-(2-(azetidin-3-ylmethoxy)ethyl)piperazin-1-yl)-8-((4-(trifluoromethoxy)benzyl)oxy)-5,6-dihydrobenzo[h]quinazolin-2-amine] | < 100 | < 100

Results, then the compound that gave them:

Row | Ki [1] [nM] | Ki [2] [nM] | SMILES
14 | < 100 | < 100 | COC(=O)[C@@H]1CC[C@H](COCCN2CCN(c3nc(N)nc4c3CCc3cc(OCc5ccc(Cl)cc5)ccc3-4)CC2)C1 (relative stereo) [153(a), methyl cis-3-((2-(4-(2-amino-8-((4-chlorobenzyl)oxy)-5,6-dihydrobenzo[h]quinazolin-4-yl)piperazin-1-yl)ethoxy)methyl)cyclopentane-l-carboxylate]
15 | < 100 | < 100 | Nc1nc2c(c(N3CCN(CCOC[C@H]4CC[C@@H](C(=O)O)C4)CC3)n1)CCc1cc(OCc3ccc(Cl)cc3)ccc1-2 (relative stereo) [153(b), cis-3-((2-(4-(2-amino-8-((4-chlorobenzyl)oxy)-5,6-dihydrobenzo[h]quinazolin-4-yl)piperazin-1-yl)ethoxy)methyl)cyclopentane-l-carboxylic acid]
16 | < 100 | < 100 | Nc1nc2c(c(N3CCN(CCOC[C@H]4CC[C@@H](C(=O)O)C4)CC3)n1)CCc1cc(OCc3ccc(OC(F)(F)F)cc3)ccc1-2 (relative stereo) [Example 155]
17 | 100 to 500 | < 100 | Nc1nc2c(c(N3CCN(CCOC[C@H]4C[C@@H](C(=O)O)O4)CC3)n1)CCc1cc(OCc3ccc(OC(F)(F)F)cc3)ccc1-2 (relative stereo) [Example 176]
18 | 100 to 500 | < 100 | Nc1nc2c(c(N3CCN(CCOC[C@H]4C[C@H](C(=O)O)O4)CC3)n1)CCc1cc(OCc3ccc(OC(F)(F)F)cc3)ccc1-2 (relative stereo) [Example 177, trans-4-((2-(4-(2-amino-8-((4-(trifluoromethoxy)benzyl)oxy)-5,6-dihydrobenzo[h]quinazolin-4-yl)piperazin-1-yl)ethoxy)methyl)oxetane-2-carboxylic acid]
19 | 100 to 500 | < 100 | COC(=O)c1cccc(COCCN2CCN(c3nc(N)nc4c3CCc3cc(OCc5ccc(Cl)cc5)ccc3-4)CC2)c1 [15(a), methyl 3-((2-(4-(2-amino-8-((4-chlorobenzyl)oxy)-5,6-dihydrobenzo[h]quinazolin-4-yl)piperazin-1-yl)ethoxy)methyl)benzoate]
20 | < 100 | < 100 | C[C@]1(C(=O)O)C[C@H](OCCN2CCN(c3nc(N)nc4c3CCc3cc(OCc5ccc(Cl)cc5)ccc3-4)CC2)C1 [25(b), trans-3-(2-(4-(2-amino-8-((4-chlorobenzyl)oxy)-5,6-dihydrobenzo[h]quinazolin-4-yl)piperazin-1-yl)ethoxy)-1-methylcyclobutane-1-carboxylic acid]
21 | 100 to 500 | < 100 | C[C@]1(C(=O)O)C[C@@H](OCCN2CCN(c3nc(N)nc4c3CCc3cc(OCc5ccc(Cl)cc5)ccc3-4)CC2)C1 [26(b), cis-3-(2-(4-(2-amino-8-((4-chlorobenzyl)oxy)-5,6-dihydrobenzo[h]quinazolin-4-yl)piperazin-1-yl)ethoxy)-1-methylcyclobutane-1-carboxylic acid]
22 | < 100 | < 100 | COC(=O)c1ccc(COCCN2CCN(c3nc(N)nc4c3CCc3cc(OCc5ccc(Cl)cc5)ccc3-4)CC2)o1 [127(a), methyl 5-((2-(4-(2-amino-8-((4-chlorobenzyl)oxy)-5,6-dihydrobenzo[h]quinazolin-4-yl)piperazin-1-yl)ethoxy)methyl)furan-2-carboxylate]
